From ChEMBL document CHEMBL5465560, “Selectivity Literature for EUbOPEN Chemogenomic Library” (2024)
Numbering of substitutions follows the chain as printed.

Key:
[1] = biological target: Receptor-type tyrosine-protein kinase FLT3 (Homo sapiens) (UniProt P36888); test: (§1) Selectivity interaction (KinomeScan (DiscoverX)) EUB0001619a FLT3; settings: at 1 µM
[2] = tested on: T1, Receptor-type tyrosine-protein kinase FLT3 (Homo sapiens), P36888 [D835Y]; test: as §1; settings: at 1 µM
T1 sequence (whole entry): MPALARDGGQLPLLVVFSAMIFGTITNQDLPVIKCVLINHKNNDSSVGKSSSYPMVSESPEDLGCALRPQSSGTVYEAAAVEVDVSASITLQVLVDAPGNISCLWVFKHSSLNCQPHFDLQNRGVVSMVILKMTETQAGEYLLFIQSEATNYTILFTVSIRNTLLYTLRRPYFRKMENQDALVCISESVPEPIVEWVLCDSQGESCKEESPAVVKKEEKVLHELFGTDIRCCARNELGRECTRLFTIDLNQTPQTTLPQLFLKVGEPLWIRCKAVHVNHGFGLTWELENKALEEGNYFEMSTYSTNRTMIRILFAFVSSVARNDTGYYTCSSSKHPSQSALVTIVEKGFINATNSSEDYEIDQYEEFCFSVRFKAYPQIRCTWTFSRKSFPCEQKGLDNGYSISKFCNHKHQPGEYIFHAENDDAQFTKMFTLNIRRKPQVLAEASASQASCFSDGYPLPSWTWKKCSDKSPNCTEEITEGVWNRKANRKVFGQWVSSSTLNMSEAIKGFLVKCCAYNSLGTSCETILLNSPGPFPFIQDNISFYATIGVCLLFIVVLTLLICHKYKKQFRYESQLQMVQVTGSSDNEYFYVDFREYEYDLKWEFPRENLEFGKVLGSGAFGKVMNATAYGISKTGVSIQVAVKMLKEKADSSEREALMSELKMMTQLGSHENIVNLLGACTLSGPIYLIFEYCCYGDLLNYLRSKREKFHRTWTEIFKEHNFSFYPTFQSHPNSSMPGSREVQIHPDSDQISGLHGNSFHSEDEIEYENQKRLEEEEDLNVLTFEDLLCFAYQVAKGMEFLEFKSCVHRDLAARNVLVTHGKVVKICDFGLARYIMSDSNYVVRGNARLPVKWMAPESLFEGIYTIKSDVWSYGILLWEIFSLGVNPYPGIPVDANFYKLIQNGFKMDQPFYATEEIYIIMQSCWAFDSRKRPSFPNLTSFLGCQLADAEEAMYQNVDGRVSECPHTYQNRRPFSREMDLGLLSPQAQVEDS

[3] = tested on: T2, Receptor-type tyrosine-protein kinase FLT3 (Homo sapiens), P36888 [N841I]; test: as §1; settings: at 1 µM
T2 sequence (whole entry): T1 sequence (whole entry) with Y835D, N841I

[4] = tested on: T3, Receptor-type tyrosine-protein kinase FLT3 (Homo sapiens), P36888 [R834Q]; test: as §1; settings: at 1 µM
T3 sequence (whole entry): T1 sequence (whole entry) with R834Q, Y835D

[5] = biological target: RAC-alpha serine/threonine-protein kinase (Homo sapiens, UniProt P31749); test: Selectivity interaction (SelectScreen profiling (Invitrogen)) EUB0000607a AKT1; settings: at 2 µM
RAC-alpha serine/threonine-protein kinase, sequence (P31749 whole entry): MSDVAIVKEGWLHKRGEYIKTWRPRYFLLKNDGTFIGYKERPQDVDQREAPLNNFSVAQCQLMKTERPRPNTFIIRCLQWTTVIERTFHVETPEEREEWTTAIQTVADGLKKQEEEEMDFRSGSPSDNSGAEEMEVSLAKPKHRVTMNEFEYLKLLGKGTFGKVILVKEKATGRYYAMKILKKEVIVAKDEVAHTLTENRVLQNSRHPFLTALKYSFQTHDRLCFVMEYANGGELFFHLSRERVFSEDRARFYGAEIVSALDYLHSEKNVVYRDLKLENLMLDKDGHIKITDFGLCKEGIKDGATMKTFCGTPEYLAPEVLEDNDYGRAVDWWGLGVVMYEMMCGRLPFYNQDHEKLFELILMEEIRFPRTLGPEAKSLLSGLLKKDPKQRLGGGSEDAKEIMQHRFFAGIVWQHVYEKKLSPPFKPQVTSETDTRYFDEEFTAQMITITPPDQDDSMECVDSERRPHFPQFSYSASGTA

| SMILES | % of control [1] | % of control [2] | % of control [3] | % of control [4] | % of inhibition [5] |
| --- | --- | --- | --- | --- | --- |
| N#Cc1cccc(-c2c[nH]c3ncnc(N4CCOCC4)c23)c1 | 89% | 65% | 100% | 93% | – |
| CNC(=O)Nc1ccc(-c2nc(N3CC4CCC(C3)O4)c3cnn(C4CCC5(CC4)OCCO5)c3n2)cc1 | – | – | – | – | -5% |
